In ChEMBL document CHEMBL3046386, “Cyclophosphamide analogues: synthesis, spectroscopic study, and antitumor activity of diazaphosphorinanes” (Med Chem Res, 2011):
pIC50: −log10 of the molar value.

Experiments:
[1] = Distribution coefficient, log D of the compound; details: octanol/water
[2] = Lipophilicity, log P of the compound; details: octanol/water
[3] = system: K562; assay: Antiproliferative activity against Homo sapiens (human) K562 cells after 48 hr by MTT assay; type: functional, cell-based; details: K562, 48 h

## Cc1ccc(OP2(=O)NCC(C)(C)CN2)cc1
[1]
  logD: 0.73
[2]
  logP: 1.55

## CC1(C)CNP(=O)(Nc2ccc(S(N)(=O)=O)cc2)NC1
[1]
  logD: -1
[3]
  pIC50: 4.23
[2]
  logP: -0.78

## CC1(C)CNP(=O)(NC(=O)c2ccccc2[N+](=O)[O-])NC1
[1]
  logD: -0.04
[3]
  pIC50: 5.16
[2]
  logP: 0.34

## CC1(C)CNP(=O)(NC(=O)c2cccc([N+](=O)[O-])c2)NC1
[1]
  logD: -0.03
[3]
  pIC50: 5.29
[2]
  logP: 0.34

## CC1(C)CNP(=O)(NC(=O)c2ccc([N+](=O)[O-])cc2)NC1
[1]
  logD: -0.03
[3]
  pIC50: 5.19
[2]
  logP: 0.34

## O=P1(N(CCCl)CCCl)NCCCO1 (stereo unspecified) [CYCLOPHOSPHAMIDE ANHYDROUS]
[1]
  logD: 0.05
[2]
  logP: 1.12
